This passage reports Ratio IC50 and Activity results from ChEMBL document CHEMBL1139880, “Potent and selective agonists of human melanocortin receptor 5: cyclic analogues of alpha-melanocyte-stimulating hormone” (J Med Chem, 2007).

For assay [1], the target named is Melanocortin receptor (M4 and M5) (Homo sapiens) (UniProt P32245+P33032). The assay can be described thus: Selectivity for human cloned MC5R over human cloned MC4R. The format is protein assay.
For assay [2], the species on record is Homo sapiens. Put plainly: Selectivity for human cloned MC5R over human cloned MC3R.
The species named for assay [3] is Homo sapiens. Put plainly: Selectivity for human cloned MC5R over human cloned MC1bR.
Assay [4] deals with T1, Melanocortin receptor 4 (Homo sapiens, UniProt P32245). The assay can be described thus: Agonist activity at human MC4R expressed in CHO cells assessed as cAMP accumulation at […] relative to [125I]NDPalphaMSH.
T1 sequence (P32245 whole entry): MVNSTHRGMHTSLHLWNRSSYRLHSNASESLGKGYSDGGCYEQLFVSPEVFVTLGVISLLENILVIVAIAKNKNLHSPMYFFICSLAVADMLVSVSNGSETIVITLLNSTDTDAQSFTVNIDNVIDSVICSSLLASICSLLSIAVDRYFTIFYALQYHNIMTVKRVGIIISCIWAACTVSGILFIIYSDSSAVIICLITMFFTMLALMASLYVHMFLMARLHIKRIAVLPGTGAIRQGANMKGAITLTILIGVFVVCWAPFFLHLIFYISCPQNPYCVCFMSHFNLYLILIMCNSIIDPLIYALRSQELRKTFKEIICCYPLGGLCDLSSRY
The target in assay [5] is T2, Melanocortin receptor 3 (Homo sapiens, UniProt P41968). Put plainly: Agonist activity at human MC3R expressed in CHO cells assessed as cAMP accumulation at […] relative to [125I]NDPalphaMSH. The class given is functional, cell-based.
T2 sequence (P41968 whole entry): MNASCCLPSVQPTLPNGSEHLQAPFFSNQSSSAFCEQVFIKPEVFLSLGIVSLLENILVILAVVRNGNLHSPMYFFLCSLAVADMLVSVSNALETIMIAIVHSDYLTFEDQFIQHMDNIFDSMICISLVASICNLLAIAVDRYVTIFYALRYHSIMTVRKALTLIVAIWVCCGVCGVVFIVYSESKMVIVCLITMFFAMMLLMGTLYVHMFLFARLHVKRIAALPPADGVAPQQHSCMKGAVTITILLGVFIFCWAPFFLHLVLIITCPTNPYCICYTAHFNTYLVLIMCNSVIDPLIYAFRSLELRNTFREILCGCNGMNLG
Assay [6] has as its target T2, Melanocortin receptor 3. Put plainly: Agonist activity at human MC3R expressed in CHO cells assessed as cAMP accumulation at 2 uM relative to [125I]NDPalphaMSH. The format is functional, cell-based.
For assay [7], the target named is T1, Melanocortin receptor 4. Put plainly: Agonist activity at human MC4R expressed in CHO cells assessed as cAMP accumulation at 2 uM relative to [125I]NDPalphaMSH. The class given is functional, cell-based. To be noted: filed as partial agonist.

SMILES strings stand for the structures.

Chain of Melanocortin receptor (M4 and M5) (Homo sapiens) (P32245 whole entry, looked up): as the sequence (P32245 whole entry) above
Chain of Melanocortin receptor (M4 and M5) (Homo sapiens) (P33032 whole entry, looked up): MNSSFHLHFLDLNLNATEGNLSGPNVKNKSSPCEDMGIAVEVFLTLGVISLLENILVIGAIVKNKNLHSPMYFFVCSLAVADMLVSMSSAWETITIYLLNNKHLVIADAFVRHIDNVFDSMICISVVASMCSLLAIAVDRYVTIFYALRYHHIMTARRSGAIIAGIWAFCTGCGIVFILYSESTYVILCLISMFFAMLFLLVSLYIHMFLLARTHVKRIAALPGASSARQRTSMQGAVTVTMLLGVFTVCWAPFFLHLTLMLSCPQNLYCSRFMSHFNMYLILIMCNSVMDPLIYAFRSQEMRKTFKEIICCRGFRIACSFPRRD

For `CCCC[C@H](NC(C)=O)C(=O)N[C@H]1CC(=O)NCCCC[C@@H](C(N)=O)NC(=O)[C@H](Cc2c[nH]c3ccccc23)NC(=O)[C@@H]2CCCCN2C(=O)[C@H](Cc2ccc(-c3ccccc3)cc2)NC(=O)[C@@H]2Cc3ccccc3CN2C1=O`, the Ratio IC50 in assay [1] is 260; in the assay filed under Homo sapiens [2], 1440; in the assay filed under Homo sapiens [3], 260. The figures for the Activity at Melanocortin receptor 4 [4] and at Melanocortin receptor 3 [5] were 0% and 10%, respectively.

As to `CCCC[C@H](NC(C)=O)C(=O)N[C@H]1CC(=O)NCCCC[C@@H](C(N)=O)NC(=O)[C@H](Cc2c[nH]c3ccccc23)NC(=O)[C@@H]2CCCCN2C(=O)[C@H](Cc2ccc(-c3ccccc3)cc2)NC(=O)[C@@H]2CC3CCCCC3N2C1=O` (stereo not given in full), the Ratio IC50 (in assay [1]; in the assay listed under Homo sapiens [2]; in the assay filed under Homo sapiens [3]) was greater than 5000 each time. Moreover, the Activity at Melanocortin receptor 3 [6] is 5%; on Melanocortin receptor 4 [7], 40%.
